Assay results: article PMC8143347, “Metabolism and Interspecies Variation of IMMH-010, a Programmed Cell Death Ligand 1 Inhibitor Prodrug” (Pharmaceutics, 2021)
Entries after “also recorded” stand apart in the source; their conditions may differ.

Assays:
Type in all cases: in vitro ADME
CES2 = target: T1, CES2 (Homo sapiens, UniProt O00748); assay: Chemical inhibition of IMMH-010 hydrolysis in HLM, selective CES2 inhibitor; parameters: tissue BD Gentest; host or cells: pooled mixed-gender human liver microsomes; details: 50 μM inhibitor, IMMH-010 10 µM, HLM 0.2 mg/mL, 15 min
T1 sequence (O00748 27-559): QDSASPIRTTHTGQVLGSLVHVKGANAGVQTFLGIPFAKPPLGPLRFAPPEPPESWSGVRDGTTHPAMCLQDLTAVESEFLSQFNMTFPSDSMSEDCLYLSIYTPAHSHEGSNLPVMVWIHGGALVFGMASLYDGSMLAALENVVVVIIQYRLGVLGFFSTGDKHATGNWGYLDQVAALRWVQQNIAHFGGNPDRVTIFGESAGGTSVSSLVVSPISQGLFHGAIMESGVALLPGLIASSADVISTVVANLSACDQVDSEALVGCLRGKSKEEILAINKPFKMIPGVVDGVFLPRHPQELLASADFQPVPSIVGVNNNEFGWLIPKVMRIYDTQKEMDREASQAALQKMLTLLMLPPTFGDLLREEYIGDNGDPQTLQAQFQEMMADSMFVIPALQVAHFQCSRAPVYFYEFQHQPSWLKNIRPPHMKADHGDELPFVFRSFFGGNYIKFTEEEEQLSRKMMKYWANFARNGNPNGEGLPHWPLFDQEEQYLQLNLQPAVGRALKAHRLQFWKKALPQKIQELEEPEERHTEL
Method: (§1) Selective chemical inhibitors and recombinant human enzymes were used to investigate the esterase responsible for IMMH-010 metabolism in HLM. The selective CES1 and CES2 inhibitors were digitonin (100 μM) and telmisartan (50 μM), respectively. IMMH-010 (10 µM) was incubated with HLM (0.2 mg/mL) at 37 °C for 0 and 15 min in the presence of chemical inhibitors. Control samples were incubated without inhibitors.

CES1 = target: T2, CES1 (Homo sapiens, UniProt P23141); assay: Chemical inhibition of IMMH-010 hydrolysis in HLM, selective CES1 inhibitor; parameters: tissue BD Gentest; host or cells: pooled mixed-gender human liver microsomes; details: 100 μM inhibitor, IMMH-010 10 µM, HLM 0.2 mg/mL, 15 min, vs no inhibitor group
T2 sequence (P23141 18-567): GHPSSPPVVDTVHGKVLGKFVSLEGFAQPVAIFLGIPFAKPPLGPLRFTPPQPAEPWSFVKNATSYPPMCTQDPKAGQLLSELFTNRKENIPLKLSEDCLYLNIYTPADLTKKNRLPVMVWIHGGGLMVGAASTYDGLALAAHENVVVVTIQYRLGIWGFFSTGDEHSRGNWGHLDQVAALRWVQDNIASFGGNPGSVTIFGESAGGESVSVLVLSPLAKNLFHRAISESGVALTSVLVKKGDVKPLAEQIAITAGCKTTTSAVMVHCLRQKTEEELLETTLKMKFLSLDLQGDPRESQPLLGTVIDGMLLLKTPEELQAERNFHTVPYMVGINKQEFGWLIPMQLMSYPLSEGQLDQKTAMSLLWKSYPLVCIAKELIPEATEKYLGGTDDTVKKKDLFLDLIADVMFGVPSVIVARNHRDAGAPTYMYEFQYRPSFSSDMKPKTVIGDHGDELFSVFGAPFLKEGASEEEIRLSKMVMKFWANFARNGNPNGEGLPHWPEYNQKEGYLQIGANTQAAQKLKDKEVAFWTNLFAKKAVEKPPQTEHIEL
Method: as §1

[1] = IMMH-010 stability in human plasma; details: 10 μM, after 1 h of incubation
Method: (§2) IMMH-010 hydrolysis was investigated in human, monkey, rat, and mouse plasma. […] IMMH-010 (10 μM) was incubated in rat or mouse plasma (0.2 mL) at 4 °C for 60 min. The experiments were performed in triplicate. The reactions were initiated by the addition of IMMH-010 (10 μM). After incubation, the reactions were stopped by adding 2 volumes of ice-cold acetonitrile. After vortexing and centrifuging, the concentrations of IMMH-010 and YPD-29B in the supernatant were determined by liquid chromatography with tandem mass spectrometry (LC-MS/MS). The compound olmesartan (10 μM), a substrate of paraoxonase 1, was set as the positive control.

[2] = IMMH-010 stability in rat plasma; details: 10 μM, after 1 h of incubation
Method: (§3) IMMH-010 hydrolysis was investigated in human, monkey, rat, and mouse plasma. IMMH-010 (1 μM) was incubated in human, monkey, or […] plasma (0.2 mL) at 37 °C for 120 min. IMMH-010 (10 μM) was incubated in rat or mouse plasma (0.2 mL) at 4 °C for 60 min. The experiments were performed in triplicate. The reactions were initiated by the addition of IMMH-010 (10 μM). After incubation, the reactions were stopped by adding 2 volumes of ice-cold acetonitrile. After vortexing and centrifuging, the concentrations of IMMH-010 and YPD-29B in the supernatant were determined by liquid chromatography with tandem mass spectrometry (LC-MS/MS). The compound olmesartan (10 μM), a substrate of paraoxonase 1, was set as the positive control.

[3] = IMMH-010 stability in mouse plasma; details: 10 μM, after 1 h of incubation
Method: as §3

[4] = IMMH-010 stability in monkey plasma; details: 10 μM, after 1 h of incubation
Method: as §2

CCCc1nc2c(C)cc(-c3nc4ccccc4n3C)cc2n1Cc1ccc(-c2ccccc2C(=O)O)cc1 [telmisartan]
inhibition of the formation of YPD-29B (CES2): did not inhibit; also recorded: no inhibition

C[C@@H]1CC[C@@]2(OC1)O[C@H]1[C@@H](O)[C@H]3[C@@H]4CC[C@H]5C[C@@H](O[C@@H]6O[C@H](CO)[C@H](O[C@@H]7O[C@H](CO)[C@@H](O)[C@H](O[C@@H]8OC[C@@H](O)[C@H](O)[C@H]8O)[C@H]7O[C@@H]7O[C@H](CO)[C@H](O)[C@H](O[C@@H]8O[C@H](CO)[C@@H](O)[C@H](O)[C@H]8O)[C@H]7O)[C@H](O)[C@H]6O)[C@H](O)C[C@]5(C)[C@H]4CC[C@]3(C)[C@H]1[C@@H]2C [digitonin]
inhibition of the formation of YPD-29B (CES1): 35.8%

CCCc1nc(C(C)(C)O)c(C(=O)O)n1Cc1ccc(-c2ccccc2-c2nnn[nH]2)cc1 [olmesartan, reference compound]
decrease of control compound in plasma [1]: more than 80% | decrease of control compound in plasma [2]: more than 80% | decrease of control compound in plasma [3]: more than 80% | decrease of control compound in plasma [4]: more than 80%
